The text below walks through data of patent US20230365576A1, “BRM Targeting Compounds And Associated Methods Of Use” (Prelude Therapeutics Incorporated, priority 2022, published 2023).

Bounds are passed on as bounds.

One experiment has as its target T1, SMARCA2 (Homo sapiens, UniProt P51531).
T1 construct: SMARCA2-HiBiT knock-in Hela monoclonal cell (CS302366); host or cells: HeLa (CRISPR HiBiT knock-in monoclonal line, heterozygous)
The experiment can be described thus: SMARCA2 HiBiT degradation assay in HeLa cells. The format is cell-based. The settings on record: 18 hours; for DC50: read-out: SMARCA2 IC50; for Dmax: HeLa. The procedure:
(§1) Example A. SMARCA2 HiBiT and SMARCA4 HiBiT Degradation Assay
(§2) Preparation of SMARCA2/4-HiBiT Knock-In Cells
(§3) HiBiT peptide knock-in of SMARCA2 in LgBiT expressing HEK293T cells was performed by CRISPR-mediated tagging system as described Promega. The homozygous HiBiT knock-in on c-terminus SMARCA2 was confirmed by sanger sequence. SMARCA2-HiBiT knock-in Hela monoclonal cell (CS302366) and SMARCA4-HiBiT knock-in Hela monoclonal cell (CS3023226) were purchased from Promega. The heterozygous HiBiT-knock-in was confirmed by sanger sequence in both SMARCA2-HiBiT and SMARCA4-HiBiT monoclonal cells.
(§4) SMARCA2 HiBiT and SMARCA4 HiBiT Degradation Assay in HeLa Cells
(§5) Compounds were dissolved in DMSO to make 10 mM stock and 3-fold series dilutions were further conducted keeping the highest concentration 10 μM. NCIH1693 and NCIH520 cells were maintained in PRMI 1640 medium (Corning Cellgro, Catalog #:10-040-CV) supplemented with 10% v/v FBS (GE Healthcare, Catalog #: SH30910.03) by splitting 1:3 twice a week.
(§6) Dispense 10 ul aliquot of prepared Hela-SMARCA2-HiBiT or Hela-SMARCA4-HiBiT cells (1:1 ratio of cells:Trypan Blue (#1450013, Bio-Rad)) onto cell counting slide (#145-0011, Bio-Rad) and obtain cell density and cell viability using cell counter (TC20, Bio-Rad). Remove appropriate volume of resuspended cells from culture flask to accommodate 2500 cells/well @ 20 μL/well. Transfer Hela-HiBiT cells to 50 mL conical (#430290, Corning). Spin down at 1000 rpm for 5 min using tabletop centrifuge (SPINCHRON 15, Beckman). Discard supernatant and resuspend cell pellet in modified EMEM (#30-2003, ATCC) cell culture media containing 10% FBS (F2422-500ML, Sigma), and 1X Penicillin/Streptomycin (200 g/L) (30-002-CI, Corning) to a cell density of 125,000 cells/mL. Dispense 20 μL of resuspended Hela-HiBit cells per well in 384-well TC treated plate (#12-565-343, Thermo Scientific) using standard cassette (#50950372, Thermo Scientific) on Multidrop Combi (#5840310, Thermo Scientific) inside laminar flow cabinet. Dispense test compounds onto plates using digital liquid dispenser (D300E, Tecan). Incubate plates in humidified tissue culture incubator @37° C. for 18 hours. Add 20 μL of prepared Nano-Glo® HiBiT Lytic detection buffer (N3050, Promega) to each well of 384-well plate using small tube cassette (#24073295, Thermo Scientific) on Multidrop Combi, incubate @ RT for 30-60 min. Read plates on microplate reader (Envision 2105, PerkinElmer) using 384 well Ultra-Sensitive luminescence mode. Raw data files and compound information reports are swept into centralized data lake and deconvoluted using automated scripts designed by TetraScience, Inc. Data analysis, curve-fitting and reporting done in Dotmatics Informatics Suite using Screening Ultra module.
In general terms: HiBiT is a short tag that completes a luciferase, so light tracks the accessible tagged protein.

The next experiment deals with T2, SMARCA4 (Homo sapiens, UniProt P51532).
T2 construct: SMARCA4-HiBiT knock-in Hela monoclonal cell (CS3023226) were purchased from Promega; host or cells: HeLa (CRISPR HiBiT knock-in monoclonal line, heterozygous)
Nature of the experiment: SMARCA4 HiBiT degradation assay in HeLa cells. The format is cell-based. The settings on record: 18 hours; for Dmax: HeLa. The procedure:
as §1, §2, §3, §4, §5, §6

T2 sequence (P51532 whole entry): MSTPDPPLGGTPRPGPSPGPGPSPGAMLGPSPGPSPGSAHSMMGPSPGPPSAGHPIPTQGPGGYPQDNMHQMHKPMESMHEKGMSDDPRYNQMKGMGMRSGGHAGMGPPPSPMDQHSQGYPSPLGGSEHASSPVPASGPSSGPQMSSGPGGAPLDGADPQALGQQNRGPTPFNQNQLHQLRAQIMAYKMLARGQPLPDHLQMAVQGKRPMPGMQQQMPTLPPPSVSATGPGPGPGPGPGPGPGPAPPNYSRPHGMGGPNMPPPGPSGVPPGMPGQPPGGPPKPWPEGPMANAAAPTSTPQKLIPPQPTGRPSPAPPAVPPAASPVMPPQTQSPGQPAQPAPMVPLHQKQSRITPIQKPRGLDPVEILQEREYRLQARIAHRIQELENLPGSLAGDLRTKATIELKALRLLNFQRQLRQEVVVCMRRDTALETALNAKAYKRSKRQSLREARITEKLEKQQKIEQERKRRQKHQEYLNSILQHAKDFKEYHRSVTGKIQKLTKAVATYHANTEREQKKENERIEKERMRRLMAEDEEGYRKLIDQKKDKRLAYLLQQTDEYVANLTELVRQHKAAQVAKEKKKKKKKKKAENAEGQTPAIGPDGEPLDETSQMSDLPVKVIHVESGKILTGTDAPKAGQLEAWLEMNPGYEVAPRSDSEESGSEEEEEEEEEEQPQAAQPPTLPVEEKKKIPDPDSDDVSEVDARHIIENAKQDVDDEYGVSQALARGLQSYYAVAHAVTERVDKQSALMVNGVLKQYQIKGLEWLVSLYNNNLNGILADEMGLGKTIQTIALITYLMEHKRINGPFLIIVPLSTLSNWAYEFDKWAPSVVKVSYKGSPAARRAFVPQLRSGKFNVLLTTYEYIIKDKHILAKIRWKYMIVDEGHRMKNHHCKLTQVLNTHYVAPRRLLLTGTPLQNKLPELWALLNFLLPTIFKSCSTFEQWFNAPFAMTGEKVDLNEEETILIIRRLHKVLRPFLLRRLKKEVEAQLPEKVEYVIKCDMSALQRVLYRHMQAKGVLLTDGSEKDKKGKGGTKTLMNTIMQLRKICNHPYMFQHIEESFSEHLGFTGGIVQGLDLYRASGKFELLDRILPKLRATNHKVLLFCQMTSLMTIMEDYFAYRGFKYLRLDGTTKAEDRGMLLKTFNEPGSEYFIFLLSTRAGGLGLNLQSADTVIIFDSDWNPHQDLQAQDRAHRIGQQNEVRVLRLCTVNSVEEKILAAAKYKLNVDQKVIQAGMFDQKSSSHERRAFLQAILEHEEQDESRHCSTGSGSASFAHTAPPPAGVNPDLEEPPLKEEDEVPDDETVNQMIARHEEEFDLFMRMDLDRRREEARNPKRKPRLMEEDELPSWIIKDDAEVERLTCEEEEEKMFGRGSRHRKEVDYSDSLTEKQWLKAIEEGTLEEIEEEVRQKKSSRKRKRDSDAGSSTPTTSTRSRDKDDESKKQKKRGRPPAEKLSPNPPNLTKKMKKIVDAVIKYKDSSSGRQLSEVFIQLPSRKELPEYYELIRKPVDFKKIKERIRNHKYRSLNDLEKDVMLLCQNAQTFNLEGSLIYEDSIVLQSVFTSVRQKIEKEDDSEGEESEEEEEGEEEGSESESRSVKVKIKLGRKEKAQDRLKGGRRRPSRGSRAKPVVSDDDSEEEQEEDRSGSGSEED
T1 sequence (P51531 whole entry): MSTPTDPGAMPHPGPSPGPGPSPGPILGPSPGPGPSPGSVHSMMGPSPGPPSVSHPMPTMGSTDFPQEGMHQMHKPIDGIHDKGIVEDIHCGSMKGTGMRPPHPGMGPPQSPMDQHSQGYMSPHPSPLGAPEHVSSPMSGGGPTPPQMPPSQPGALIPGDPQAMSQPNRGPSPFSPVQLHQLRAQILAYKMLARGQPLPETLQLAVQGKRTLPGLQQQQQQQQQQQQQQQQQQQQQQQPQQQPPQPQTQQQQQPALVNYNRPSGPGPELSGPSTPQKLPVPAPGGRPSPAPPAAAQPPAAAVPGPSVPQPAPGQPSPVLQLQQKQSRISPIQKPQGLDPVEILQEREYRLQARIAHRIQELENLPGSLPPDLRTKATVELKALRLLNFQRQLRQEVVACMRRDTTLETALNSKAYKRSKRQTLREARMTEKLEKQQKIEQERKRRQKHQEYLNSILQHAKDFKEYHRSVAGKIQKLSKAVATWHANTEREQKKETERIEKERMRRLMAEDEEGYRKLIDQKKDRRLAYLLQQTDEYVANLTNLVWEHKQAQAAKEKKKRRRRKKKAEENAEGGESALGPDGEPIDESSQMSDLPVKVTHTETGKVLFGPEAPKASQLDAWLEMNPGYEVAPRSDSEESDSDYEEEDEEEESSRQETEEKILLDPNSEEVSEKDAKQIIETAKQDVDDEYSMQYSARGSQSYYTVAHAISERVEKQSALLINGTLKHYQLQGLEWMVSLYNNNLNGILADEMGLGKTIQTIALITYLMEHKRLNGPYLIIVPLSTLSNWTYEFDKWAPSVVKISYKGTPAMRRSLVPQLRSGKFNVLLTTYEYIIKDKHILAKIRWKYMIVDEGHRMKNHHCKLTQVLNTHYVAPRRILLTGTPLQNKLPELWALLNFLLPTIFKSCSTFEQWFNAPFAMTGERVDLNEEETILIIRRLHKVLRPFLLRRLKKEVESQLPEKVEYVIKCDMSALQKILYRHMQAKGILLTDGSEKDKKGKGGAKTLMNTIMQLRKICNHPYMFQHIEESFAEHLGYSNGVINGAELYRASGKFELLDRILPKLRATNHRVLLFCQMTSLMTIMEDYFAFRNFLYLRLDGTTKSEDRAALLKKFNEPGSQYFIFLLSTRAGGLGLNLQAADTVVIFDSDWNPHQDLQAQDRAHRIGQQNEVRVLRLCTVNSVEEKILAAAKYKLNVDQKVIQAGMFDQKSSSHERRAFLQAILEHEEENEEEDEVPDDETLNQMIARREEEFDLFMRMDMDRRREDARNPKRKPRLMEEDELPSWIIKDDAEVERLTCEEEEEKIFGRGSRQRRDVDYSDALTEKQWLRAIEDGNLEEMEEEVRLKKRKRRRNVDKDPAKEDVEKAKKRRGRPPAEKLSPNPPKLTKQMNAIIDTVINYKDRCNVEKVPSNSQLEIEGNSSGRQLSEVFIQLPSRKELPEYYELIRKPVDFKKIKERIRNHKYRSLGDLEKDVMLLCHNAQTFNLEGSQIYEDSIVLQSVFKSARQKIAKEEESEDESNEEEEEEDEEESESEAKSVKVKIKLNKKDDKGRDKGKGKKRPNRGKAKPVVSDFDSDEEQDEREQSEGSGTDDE

As for `CCC12CNc3nnc(-c4cccc(Cl)c4O)cc3N1CCN(C(=O)N1[C@H](C)CN(CC3CCN(c4ccc5c(c4)C(=O)N([C@H]4CCC(=O)NC4=O)C5)CC3)C[C@H]1C)C2` (single isomer, unassigned) [Example 75], the DC50 at SMARCA2 and at SMARCA4 was < 0.1 µM each time. The Dmax (usually the largest share of the target that was removed) on SMARCA2 is > 75%; on SMARCA4, 50 to 75%.
As for `CCC12CNc3nnc(-c4cccc(Cl)c4O)cc3N1CCN(C(=O)N1CCN(CC3CCN(c4ccc5c(c4)C(=O)N([C@H]4CCC(=O)NC4=O)C5)CC3)CC1(C)C)C2` (single isomer, unassigned) [Example 76], at SMARCA2, the DC50 is < 0.1 µM and the Dmax was > 75%. On SMARCA4, the DC50 is < 0.1 µM and the Dmax was 50 to 75%.
For the compound `CCC12CNc3nnc(-c4cccc(Cl)c4O)cc3N1CCN(C(=O)N1C[C@H](C)N(CC3CCN(c4ccc5c(c4)C(=O)N([C@H]4CCC(=O)NC4=O)C5)CC3)C[C@H]1C)C2` (single isomer, unassigned) [Example 77], on SMARCA2, the DC50 is < 0.1 µM and the Dmax is > 75%. Moreover, on SMARCA4, the DC50 was < 0.1 µM and the Dmax is 50 to 75%.
With `CCC12CNc3nnc(-c4cccc(F)c4O)cc3N1CCN(C(=O)N1C[C@H](C)N(CC3CCN(c4ccc5c(c4)C(=O)N([C@H]4CCC(=O)NC4=O)C5)CC3)C[C@H]1C)C2` (single isomer, unassigned) [Example 78], the DC50 at SMARCA2 and at SMARCA4 was < 0.1 µM throughout. For the same compound, the greatest degradation seen (Dmax) at SMARCA2 was > 75%; on SMARCA4, 50 to 75%.
In the case of `CCC12CNc3nnc(-c4cccc(F)c4O)cc3N1CCN(C(=O)N1CCN(CC3CCN(c4ccc5c(c4)C(=O)N(C4CCC(=O)NC4=O)C5)CC3)CC1(C)C)C2` (single isomer, unassigned) [Example 79, 3-(6-(4-((4-(6a-ethyl-2-(3-fluoro-2-hydroxyphenyl)-6,6a,7,8,9,10-hexahydro-5H-pyrazino-[1′,2′:4,5]pyrazino[2,3-c]pyridazine-8-carbonyl)-3,3-dimethylpiperazin-1-yl)methyl)-piperidin-1-yl)-1-oxoisoindolin-2-yl)piperidine-2,6-dione], on SMARCA2, the DC50 was < 0.1 µM and the Dmax is > 75%. For the same compound, at SMARCA4, the DC50 was > 1 µM and the Dmax was < 50%.
`CCC12CNc3nnc(-c4cccc(F)c4O)cc3N1CCN(C(=O)N1CCN(CC3CCN(c4ccc5c(c4)C(=O)N(C4CCC(=O)NC4=O)C5)CC3)CC1(C)C)C2` (single isomer, unassigned) [Example 80, 3-(6-(4-((4-(6a-ethyl-2-(3-fluoro-2-hydroxyphenyl)-6,6a,7,8,9,10-hexahydro-5H-pyrazino-[1′,2′:4,5]pyrazino[2,3-c]pyridazine-8-carbonyl)-3,3-dimethylpiperazin-1-yl)methyl)-piperidin-1-yl)-1-oxoisoindolin-2-yl)piperidine-2,6-dione]: at SMARCA2, the “SMARCA2 DMax %” value is “A (A=Dmax>75%)” and the DC50 is < 0.1 µM. In addition, on SMARCA4, the DC50 was < 0.1 µM and the “SMARCA4 DMax %” value is on record as “B (B=50%<Dmax≤75%)”.
On to `CCC12CNc3nnc(-c4cccc(F)c4O)cc3N1CCN(C(=O)N1[C@@H](C)CN(CC3CCN(c4ccc5c(c4)C(=O)N(C4CCC(=O)NC4=O)C5)CC3)C[C@@H]1C)C2` (single isomer, unassigned) [Example 81], for which the figures for the DC50 on SMARCA2 and on SMARCA4 were < 0.1 µM and 0.1 to 1 µM, respectively. In addition, the values for the Dmax on SMARCA2 and at SMARCA4 were > 75% and < 50%, respectively.
In the case of `CCC12CNc3nnc(-c4cccc(F)c4O)cc3N1CCN(C(=O)N1[C@H](C)CN(CC3CCN(c4ccc5c(c4)C(=O)N(C4CCC(=O)NC4=O)C5)CC3)C[C@H]1C)C2` (single isomer, unassigned) [Example 82], at SMARCA2, the DC50 was < 0.1 µM and the Dmax was > 75%. In addition, at SMARCA4, the DC50 is < 0.1 µM and the “SMARCA4 DMax %” value is “A (A=Dmax>75%)”.
For `CCC12CNc3nnc(-c4cccc(F)c4O)cc3N1CCN(C(=O)N1[C@H](C)CN(CC3CCN(c4ccc5c(c4)C(=O)N(C4CCC(=O)NC4=O)C5)CC3)C[C@H]1C)C2` (single isomer, unassigned) [Example 83], on SMARCA2, the “SMARCA2 DMax %” value was “A (A=Dmax>75%)” and the DC50 was < 0.1 µM. Further, on SMARCA4, the DC50 is < 0.1 µM and the “SMARCA4 DMax %” value was “B (B=50%<Dmax≤75%)”.
Turning to `CCC12CNc3nnc(-c4cccc(F)c4O)cc3N1CCN(C(=O)N1C[C@H](C)N(CC3CCN(c4ccc5c(c4)C(=O)N(C4CCC(=O)NC4=O)C5)CC3)C[C@H]1C)C2` (single isomer, unassigned) [Example 84], at SMARCA2, the DC50 was < 0.1 µM and the Dmax is > 75%. Moreover, on SMARCA4, the DC50 was < 0.1 µM and the Dmax lay in the range of 50 to 75%.
Consider `CCC12CNc3nnc(-c4cc(F)cc(F)c4O)cc3N1CCN(C(=O)N1[C@H](C)CN(CC3CCN(c4ccc5c(c4)C(=O)N(C4CCC(=O)NC4=O)C5)CC3)C[C@@H]1C)C2` (single isomer, unassigned) [Example 85], for which the DC50 on SMARCA2 and at SMARCA4 was < 0.1 µM in each case.
On to `CCC12CNc3nnc(-c4cccc(F)c4O)cc3N1CCN(C(=O)N1[C@H](C)CN(CC3CCN(c4ccc5c(c4)C(=O)N(C4CCC(=O)NC4=O)C5)CC3)C[C@@H]1C)C2` (single isomer, unassigned) [Example 86], for which, on SMARCA2, the “SMARCA2 DMax %” value is given as “A (A=Dmax>75%)” and the DC50 was < 0.1 µM. Also, at SMARCA4, the DC50 was < 0.1 µM and the “SMARCA4 DMax %” value is “A (A=Dmax>75%)”.
For the compound `CCC12CNc3nnc(-c4cc(F)cc(F)c4O)cc3N1CCN(C(=O)N1[C@H](C)CN(CC3CCN(c4ccc5c(c4)C(=O)N(C4CCC(=O)NC4=O)C5)CC3)C[C@@H]1C)C2` (single isomer, unassigned) [Example 87], the DC50 on SMARCA2 and at SMARCA4 was < 0.1 µM each time.
For the compound `CCC12CNc3nnc(-c4cccc(F)c4O)cc3N1CCN(C(=O)N1[C@H](C)CN(CC3CCN(c4ccc5c(c4)C(=O)N(C4CCC(=O)NC4=O)C5)CC3)C[C@@H]1C)C2` (single isomer, unassigned) [Example 88], at SMARCA2, the “SMARCA2 DMax %” value is “A (A=Dmax>75%)” and the DC50 was < 0.1 µM. Also, at SMARCA4, the DC50 is < 0.1 µM and the “SMARCA4 DMax %” value was “A (A=Dmax>75%)”.
For `CC1(C)CN(CC2CCN(c3ccc4c(c3)C(=O)N([C@H]3CCC(=O)NC3=O)C4)CC2)CCN1C(=O)N1CCN2c3cc(-c4cccc(F)c4O)nnc3NCC2(CF)C1` (single isomer, unassigned) [Example 89], at SMARCA2, the DC50 is < 0.1 µM and the Dmax is > 75%. At SMARCA4, the DC50 fell in the range of 0.1 to 1 µM and the Dmax was < 50%.
For `CC1(C)CN(CC2CCN(c3ccc4c(c3)C(=O)N([C@H]3CCC(=O)NC3=O)C4)CC2)CCN1C(=O)N1CCN2c3cc(-c4cccc(F)c4O)nnc3NCC2(CF)C1` (single isomer, unassigned) [Example 90], on SMARCA2, the “SMARCA2 DMax %” value was “A (A=Dmax>75%)” and the DC50 was < 0.1 µM. In addition, on SMARCA4, the DC50 was > 1 µM and the “SMARCA4 DMax %” value is given as “C (C=Dmax<50%)”.
On to `C[C@@H]1CN(CC2CCN(c3ccc4c(c3)C(=O)N(C3CCC(=O)NC3=O)C4)CC2)[C@@H](C)CN1C(=O)N1CCN2c3cc(-c4cccc(F)c4O)nnc3NCC2(C)C1` (single isomer, unassigned) [Example 91], for which, at SMARCA2, the DC50 was < 0.1 µM and the maximal degradation (Dmax) is > 75%. At SMARCA4, the DC50 lay in the range of 0.1 to 1 µM and the Dmax was < 50%.
In the same order, the values of `C[C@@H]1CN(CC2CCN(c3ccc4c(c3)C(=O)N(C3CCC(=O)NC3=O)C4)CC2)C[C@H](C)N1C(=O)N1CCN2c3cc(-c4cccc(Cl)c4O)nnc3NCC2(C)C1` (single isomer, unassigned) [Example 92] are < 0.1 µM, > 75%, > 1 µM and < 50%.
